According to patent US5627173A, “Phosphonoacetic acid derivatives and their use for treating degenerative joint disorders” (Hoechst Aktiengesellschaft, priority 1995, dated 1997):
In brackets after ≈: the same amount, converted by molar mass.

What was measured:
matrix metalloproteases = assay: Inhibition of matrix metalloproteases (MMP from rabbit synoviocytes HIG-82, fluorescent substrate); type: biochemical
Description: After confluent cell growth, the MMP expression was induced in the serum-free 3F12 HAM medium by adding 0.3 μmol/l phorbol 12-myristate 13-acetate. The supernatant was removed after incubating at 37° C. for 20 hours.
Activation of the MMP: The supernatant was activated with trypsin (5 μg/ml). After 15 minutes at 37° C., the activation was stopped by adding 1 mmol/l phenylmethylsulfonyl fluoride (PMSF) and incubating for a further 10 minutes. The total volume of the mixture was 210 μl.
The test substance was added in the stated concentration (see table). […] The reaction was stopped after 30 minutes by adding 10 mmol/l EDTA. The total-volume of the mixture was 320 μl . The parameters measured were the fluorescence intensities at […]. In order to take account of the possible intrinsic fluorescence of the test substances, the fluorescence intensities from parallel measurements without substrate were subtracted from the measurements with substrate. All the steps took place at 20° C.

interleukin-1β = assay: Inhibition of release of interleukin-1β from human mononuclear cells; type: cell-based; conditions: 10 .parallel.mol/l (so in the source), IL-1β, LPS-stimulated, 20 to 22 hours
Description: Obtaining mononuclear cells from human blood: 10 ml of human blood stabilized with 1 ml of 3.8 percent sodium citrate solution were diluted with 10 ml of PM16 (Serra, Heidelberg), and an underlayer of 15 ml of Lymphoprep (Dr. Molter GmbH, Heidelberg) was introduced. The samples were centrifuged at 400 x g (Minifuge 2 Heraeus, Osterode) at room temperature for 40 minutes. The mononuclear cells were visible as a white ring at the Lymphoprep/plasma boundary. This ring was cautiously removed with a syringe, diluted with the same volume of PM16 and centrifuged at 400 x g for 10 minutes. The precipitate was washed with ^~ 10 ml of RPMI1640 (+300 mg/I L-glutamine, Gibco, Eggenstein). After the cells had been suspended in ^~ 1 ml of RPMI1640 (+300 mg/I L-glutamine, +25 mM HEPES, +100 μg/ml streptomycin, +100 μg/ml penicillin), the cell density was determined with a JT Coulter Counter (Coulter Diagnostics) and adjusted to 5.10^6 /ml. 90% of the resulting cells were lymphocytes and 10% were monocytes.
Inhibition of release of interleukin-1β: 230 μl of mononuclear cells were incubated with 10 μl of test substance (10 μM in dimethyl sulfoxide (DMSO)/water=1/10) and 10 μl of a lipopolysaccharide solution (500 μg dissolved in 1 ml of DMSO and diluted 1/10 with water before starting the test, from Salmonella abortus equi, (Sigma, Deisenhofen) at 37° C., 5% CO2 for 20 to 22 hours. The samples were cooled to 0° C. in an ice bath and centrifuged in a Sigma centrifuge (2 minutes; 2000 revolutions per minute (rpm)). Aliquots of the supernatant were determined using a commercially available ELISA 5(Biermann, Bad Nauheim).
All active substances were tested at a concentration of 10 .parallel.mol/l. IL-1β release was tested in each case.

[1] = tested on: isolated strips of guinea pig lung; assay: Antagonism of LTD4-induced contraction of isolated strips of guinea pig lung; conditions: Cavia porcellus; agonist LTD4; read-out: Anticontractile effect (lung), concentration range corresponding to the IC50 value
Text: (§1) The test was based on the same principle as the test indicated in Pharmacological Test 5; however, strips of lung were used in this case.
(§2) The guinea pig was sacrificed under anesthesia with laughing gas. The entire lung tract was cut out starting from the trachea. The lobes of the lungs were cut in circular fashion to produce strips about 3 mm wide. The strips of the upper lobes were divided up in order to obtain a total of six strips of approximately equal size. The strips were suspended in the organ baths under a preload of 4 g. Modified Krebs-Henseleit solutions were used as nutrient solution. When platelet activating factor (PAF) was used as agonist, the composition of this solution corresponded to that for the agonist SP in Pharmacological Test 5; a Krebs-Henseleit solution as in the case of the agonist KCI (Pharm. Test 5) was used for the agonist LTD4. 95% by volume 02, 5% by volume CO2 was bubbled through the bath, and the bath temperature was 37° C. The test is carried out by a therapeutic/cumulative method with dose levels of 1, 3, 6 and 10 μg/ml.
(§3) The test animals, organ bath, vehicle, mode of administration corresponded to that stated for Pharmacological Test 5.

[2] = tested on: isolated strips of guinea pig lung; assay: Antagonism of PAF-induced contraction of isolated strips of guinea pig lung; conditions: Cavia porcellus; agonist PAF; read-out: Anticontractile effect (lung), concentration range corresponding to the IC50 value
Text: as §1, §2, §3

[3] = tested on: isolated guinea pig trachea; assay: Antagonism of KCl-induced contraction of the isolated guinea pig trachea; conditions: Cavia porcellus; agonist KCl; read-out: Anticontractile effect (trachea), concentration range needed to bring about a dilatation corresponding to the ED50 range
Text: (§4) The compounds according to the invention are used as antagonists of the contraction of various parts of organs, in this case the isolated guinea pig trachea. The agonists used were KCl, PGF2a, calcium ionophore A23187 and substance P:
Products with a non-specific effect generally show a spasmolytic effect with respect to all agonists. KCI is representative here of non-specific, receptor-independent contraction because KCl-induced contractions are produced predominantly physically, that is to say by increasing the K+ concentration in the outside medium, and change the resting potential of the cell.
(§5) The guinea pigs were sacrificed by lethal anesthesia with laughing gas. The trachea was dissected out over its entire length and cut into 15 individual cartilage rings. In each case five rings were connected together to form a chain and fixed in an organ bath under a preload of 3 g. After an equilibration period of 45 minutes, a contraction was induced with the agonist. Cumulative addition of the antagonist (test product) took place at the plateau 5 of the maximum. Evaluation took place as % change in strength based on the maximum contraction. The test was carried out at 37° C., and the physiological nutrient solution used was a modified Krebs-Henseleit solution through which 95% by volume 02 and 5% by volume CO2 was bubbled.
(§6) Test animals: Albino guinea pigs (102), weight: 200 to 300 g, male or female
(§7) Composition of the organ bath (nutrient solution):
(§8) Vehicle: Double-distilled water, ethanol or isopropanol; Administration: into the organ bath Number of administrations: cumulative, single doses for SP

[4] = tested on: isolated guinea pig trachea; assay: Antagonism of PGF2α-induced contraction of the isolated guinea pig trachea; conditions: Cavia porcellus; agonist PGF2α; read-out: Anticontractile effect (trachea), concentration range needed to bring about a dilatation corresponding to the ED50 range
Text: as §4
Inhibition of contractions induced by this cyclooxygenase product is possible only by competitive antagonism at the receptor or of the downstream signal pathway.
as §5, §6, §7, §8

[5] = tested on: isolated guinea pig trachea; assay: Antagonism of substance P-induced contraction of the isolated guinea pig trachea; conditions: Cavia porcellus; agonist substance P; read-out: Anticontractile effect (trachea), concentration range needed to bring about a dilatation corresponding to the ED50 range
Text: as §4
Antagonism is possible on the one hand by specific receptor antagonists, and on the other hand by inhibition of the downstream signal pathway.
as §5, §6, §7, §8

[6] = tested on: isolated guinea pig trachea; assay: Antagonism of calcium ionophore A23187-induced contraction of the isolated guinea pig trachea; conditions: Cavia porcellus; agonist Ca ionophore A23187; read-out: Anticontractile effect (trachea), concentration range needed to bring about a dilatation corresponding to the ED50 range
Text: as §4
c) Calcium ionophore A23187 (Calbiochem, Bad Soden) brings about, due to increased uptake of calcium ions, an activation of all calcium-dependent signal cascades in the cell.
as §5, §6, §7, §8

Row | SMILES | Inhibition of MMP, Inhibition (%) (matrix metalloproteases; 30 μM) | Inhibition of MMP, Inhibition (%) (matrix metalloproteases; 100 μM) | inhibition at 10 µM (interleukin-1β) | IC50 [1] | IC50 [2] | other results
1 | COc1ccc(C=C(C(=O)OC(C)C)P(=O)(OC)OC)cc1OCc1ccccc1 [Compound 14] | 19% | 50% |  |  |  | 
2 | COP(=O)(OC)C(Cc1ccc(OCc2ccccc2)c(OCc2ccccc2)c1)C(=O)OC(C)C (stereo not shown) [Compound 25] | 24% |  |  |  |  | 
3 | COP(=O)(OC)C(=Cc1ccc(OCc2ccccc2)c(OCc2ccccc2)c1)C(=O)OC(C)C [Compound 27] | 24% | 48% | 99% |  |  | 
4 | CCOP(=O)(OCC)C(C#N)=Cc1ccc(OC(C)=O)c(OC(C)=O)c1 [Compound 56, 3-(3,4-Diacetoxyphenyl)-2-(diethoxyphosphinyl) acrylonitrile] |  |  |  | 3 to 6 µg/mL (≈ 7.87 to 15.7 µM) | 1 to 3 µg/mL (≈ 2.62 to 7.87 µM) | 
5 | COc1ccc(C=C(C(=O)OC(C)C)P(=O)(O)O)cc1OC [Compound 50] |  | 14% |  |  |  | 
6 | CCOP(=O)(OCC)C(C#N)=Cc1ccc2c(c1)OCCO2 [Compound 70] |  |  |  | ~6 µg/mL (≈ 18.6 µM) |  | 
7 | COc1cc(C=C(C(=O)OC(C)C)P(=O)(OC)OC)cc(OC)c1OC [Compound 31] | 12% | 35% | 97% |  |  | Inhibition of MMP, Inhibition (%) (matrix metalloproteases; 10 μM): 8%
8 | CCOP(=O)(OCC)C(=Cc1ccc(OS(C)(=O)=O)c(OS(C)(=O)=O)c1)C(=O)OC(C)C [Compound 63] |  |  | 92% |  |  | 
9 | CCOP(=O)(OCC)C(=Cc1c(OC)cccc1OC)C(=O)OC(C)C [Compound 48] | 9% | 26% |  |  |  | Inhibition of MMP, Inhibition (%) (matrix metalloproteases; 10 μM): 7%
10 | CCOP(=O)(OCC)C(C#N)=Cc1ccc(OC)c(OCc2ccc(CBr)cc2)c1 [Compound 4] |  |  |  | 3 to 6 µg/mL (≈ 6.07 to 12.1 µM) | 1 to 3 µg/mL (≈ 2.02 to 6.07 µM) | 
11 | COP(=O)(OC)C(=Cc1ccc2c(c1)OCO2)C(=O)OC(C)C [Compound 42] |  |  | 77% | > 10 µg/mL | 3 to 6 µg/mL (≈ 8.76 to 17.5 µM) | 
12 | COc1cc(CC(C(=O)OC(C)C)P(=O)(OC)OC)cc(OC)c1OC (stereo not shown) [Compound 36] |  |  | 15% |  |  | 
13 | CCOP(=O)(OCC)C(C#N)Cc1ccc(OC)c(OC)c1 (stereo not shown) [Compound 34, 2-(diethoxyphosphinyl)-3-(3,4-dimethoxy-phenyl)propiononitrile] |  |  |  |  |  | EC50 [3]: > 10 µg/mL; EC50 [4]: > 10 µg/mL; EC50 [5]: 1 to 10 µg/mL (≈ 3.06 to 30.6 µM)
14 | COc1ccc(C=C(C(=O)OC(C)C)P(=O)(OC)OC)cc1O [Compound 26, Isopropyl 2-(dimethoxyphosphinyl)-3-(3-hydroxy-4-methoxy-phenyl)propenoate] |  | 51% | 59% |  |  | Inhibition of MMP, Inhibition (%) (matrix metalloproteases; 10 μM): 15%
15 | COc1ccc(CC(C(=O)OC(C)C)P(=O)(OC)OC)cc1OC (stereo not shown) [Compound 41] |  |  | 11% | > 10 µg/mL | 1 to 3 µg/mL (≈ 2.78 to 8.33 µM) | 
16 | CCOP(=O)(OCC)C(Cc1ccc(OS(C)(=O)=O)c(OS(C)(=O)=O)c1)C(=O)OC(C)C (stereo not shown) [Compound 46] |  |  |  | ~10 µg/mL (≈ 19.4 µM) | 1 to 3 µg/mL (≈ 1.94 to 5.81 µM) | 
17 | CCOP(=O)(OCC)C(=Cc1ccc(OC(C)=O)c(OC(C)=O)c1)C(=O)OC [Compound 49] | 8% | 28% |  |  |  | 
18 | COc1cc(C=C(C(=O)OC(C)C)P(=O)(OC)OC)cc(OC)c1 [Compound 28] |  | 9% |  |  |  | 
19 | COc1ccc(C=C(C(=O)OC(C)C)P(=O)(OC)OC)cc1OC [Compound 39] | 19% | 47% | 63% | ~10 µg/mL (≈ 27.9 µM) |  | Inhibition of MMP, Inhibition (%) (matrix metalloproteases; 10 μM): 16%
20 | COc1ccc(C=C(C(=O)OC(C)C)P(=O)(OC)OC)c(OC)c1 [Compound 32] | 22% | 52% | 80% |  |  | Inhibition of MMP, Inhibition (%) (matrix metalloproteases; 10 μM): 12%
21 | COc1ccc(C=C(C(=O)OC(C)C)P(=O)(OC)OC)cc1OC1CCCC1 [Compound 21] | 19% | 51% |  |  |  | 
22 | CC(C)OC(=O)C(=Cc1ccc(OCc2ccccc2)c(OCc2ccccc2)c1)P(=O)(O)O [Compound 51, Ammonium hydrogen 2-(3,4-dibenzyloxybenzylidene)-isopropoxycarbonylmethanephosphonate] |  | 14% |  |  |  | 
23 | CCOC(=O)C(Cc1ccc(OC(C)=O)c(OC(C)=O)c1)P(=O)(OCC)OCC (racemic) [Compound 61, Ethyl 3-(3,4-diacetoxyphenyl)-2-(diethoxyphosphinyl) propionate (rac.)] |  |  |  | > 10 µg/mL | ~3 µg/mL (≈ 6.97 µM) | 
24 | COc1cc(OC)c(OC)cc1C=C(C(=O)OC(C)C)P(=O)(OC)OC [Compound 35] | 21% | 52% | 83% |  |  | 
25 | CCOP(=O)(OCC)C(C#N)=Cc1cc(OC)ccc1OC [Compound 30] |  |  |  | ~10 µg/mL (≈ 30.7 µM) | 1 to 3 µg/mL (≈ 3.07 to 9.22 µM) | EC50 [3]: > 10 µg/mL; EC50 [6]: 3 to 6 µg/mL (≈ 9.22 to 18.4 µM); EC50 [4]: 6 to 10 µg/mL (≈ 18.4 to 30.7 µM); EC50 [5]: 10 to 30 µg/mL (≈ 30.7 to 92.2 µM)
26 | CCOP(=O)(OCC)C(C#N)=Cc1ccc(OC)cc1OC [Compound 44] |  |  |  |  |  | EC50 [3]: > 10 µg/mL; EC50 [4]: ~6 µg/mL (≈ 18.4 µM); EC50 [5]: 10 to 30 µg/mL (≈ 30.7 to 92.2 µM)
27 | CCCCCCCCCCCCOc1cc(C=C(C#N)P(=O)(OCC)OCC)ccc1OC [Compound 1] |  |  |  | > 10 µg/mL | 1 to 3 µg/mL (≈ 2.09 to 6.26 µM) | 
28 | CCOP(=O)(OCC)C(C#N)Cc1ccc(OCc2ccccc2)c(OCc2ccccc2)c1 (stereo not shown) [Compound 11] |  |  |  |  | 6 to 10 µg/mL (≈ 12.5 to 20.9 µM) | EC50 [3]: > 10 µg/mL; EC50 [4]: > 10 µg/mL; EC50 [5]: 10 to 30 µg/mL (≈ 20.9 to 62.6 µM)
